Measured values from patent US20160032404A1, “BIOMARKERS FOR PREDICTING RESPONSE OF DLBCL TO TREATMENT WITH A BTK INHIBITOR” (Pharmacyclics LLC, priority 2014, published 2016).

System: TMD8-resistant cells
Experiment: CellTiter-Glo luminescent cell viability assay, TMD8-resistant versus TMD8-WT cells
Type: cell-based
Details: ABT-199 for 3 days

Q: With CC1(C)CCC(CN2CCN(c3ccc(C(=O)NS(=O)(=O)c4ccc(NCC5CCOCC5)c([N+](=O)[O-])c4)c(Oc4cnc5[nH]ccc5c4)c3)CC2)=C(c2ccc(Cl)cc2)C1 [ABT-199] as the compound, how does the “sensitivity to drug (effect on cell growth) compared to TMD8-WT cells” value read?
A: more sensitive
